From US20140147860A1, “Acoustic Cytometry Methods and Protocols” (LIFE TECHNOLOGIES CORPORATION, priority 2011, published 2014)

What was measured:
S. aureus cells = experiment: Relative membrane potential in an S. aureus culture, BacLight Bacterial Membrane Potential Kit (DiOC2), flow cytometry; format: cell-based, Staphylococcus aureus; conditions: SYTOX Blue-positive dead cells excluded, data not shown
[1] = system: Jurkat cells (T-cell leukemia, human); experiment: Apoptosis detection with the Annexin V Dead Cell Apoptosis Kit by acoustic flow cytometry; format: cell-based; conditions: 10 μM camptothecin for 4 hr, Annexin V staining, 488 nm excitation
Source text: Apoptotic plasma membrane assays for flow cytometry: Some of the earliest detectable apoptotic events involve the plasma membrane, including changes in membrane asymmetry and permeability. In addition to annexin V conjugates, Life Technologies provides unique assays to measure membrane changes under conditions where annexin V binding is problematic, such as in adherent cells, and without using special buffers. Annexin V conjugates In apoptotic cells, phosphatidylserine (PS) is translocated from the inner to the outer leaflet of the plasma membrane, thus exposing PS to the external cellular environment. Annexin V labeled with a fluorophore can identify apoptotic cells by binding to PS exposed on the outer leaflet of the membrane. The Alexa Fluor® series of dyes, used in Life Technologies Annexin V Dead Cell Apoptosis Kits provides brighter and more photostable bioconjugates than other organic dyes with similar spectral characteristics. Apoptosis detection with the Annexin V Dead Cell Apoptosis Kit. Jurkat cells (T-cell leukemia, human) treated with 10 μM camptothecin for 4 hr (B) or untreated control (A). Cells were stained using the Annexin V Dead Cell Apoptosis Kit and analyzed by flow cytometry with 488 nm excitation on the Attune® Acoustic Focusing Cytometer with 530/30 Xnm and 575/24 nm bandpass filters. Data were acquired with a standard 100 XμL/min collection rate. […]

N#CC(C#N)=NNc1cccc(Cl)c1 [CCCP, carbonylcyanide 3-chlorophenylhydrazone]
red-shifted DiOC2 fluorescence (membrane potential), treated versus untreated sample (S. aureus cells): increased red-shifted DiOC2 fluorescence in the untreated sample (−CCCP, green) as compared to the CCCP-treated sample

CC[C@@]1(O)C(=O)OCc2c1cc1n(c2=O)Cc2cc3ccccc3nc2-1 [camptothecin]
percentage of apoptotic cells versus untreated control [1]: higher percentage of apoptotic cells
